Test results as given in paper PMC12307812 (Nature Communications, 2025).
Read-outs that look alike come from different tables or passages of the source.

How the values were obtained:
[1] = tested on: SARS-CoV-2 isolate hCoV-19/Germany/FI1103201/2020; test: microbe, parasite or virus in culture; assay type: cell-based
[2] = tested on: pseudovirus bearing VSV-G; test: organism not typed; assay type: cell-based; settings: Calu-3; for inhibition at 0.00025 µM: concentration 0.25 nM; for inhibition at 0.0025 µM: concentration 2.5 nM; for inhibition at 0.025 µM: concentration 25 nM; for inhibition at 0.25 µM: concentration 250 nM; for inhibition at 2.5 µM: concentration 2500 nM; for inhibition at 25 µM: concentration 25000 nM
[3] = tested on: pseudoviruses carrying diverse coronavirus S proteins; assay type: cell-based
Calu-3 cells = test: Analysis of cell viability (CellTiter-Glo); assay type: cell-based, human; settings: 24 h, Supplementary Fig. S6
Method: Cells incubated with a medium containing DMSO (solvent) served as controls. Cell viability was assessed using the CellTiter-Glo® Luminescent Cell Viability Assay (Promega) according to the manufacturer’s instructions. Data normalization was performed as follows: cell viability in the absence of inhibitor (DMSO-only samples) was set as 100% and the relative viability of cells incubated with the respective inhibitor concentrations was calculated.

[4] = molecular target: T1, Recombinant Human TMPRSS2 (Homo sapiens, UniProt O15393); test: TMPRSS2 biochemical assay (Boc-Gln-Ala-Arg-AMC fluorogenic substrate); settings: for inhibition at 0.000677404 µM: concentration 0.677404 nM; for inhibition at 0.00203221 µM: concentration 2.03221 nM; for inhibition at 0.00609663 µM: concentration 6.09663 nM; for inhibition at 0.0182899 µM: concentration 18.2899 nM; for inhibition at 0.0548697 µM: concentration 54.8697 nM; for inhibition at 0.164609 µM: concentration 164.609 nM; for inhibition at 0.493827 µM: concentration 493.827 nM; for inhibition at 1.48148 µM: concentration 1481.48 nM; for inhibition at 4.44444 µM: concentration 4444.44 nM; for inhibition at 13.3333 µM: concentration 13333.3 nM; for inhibition at 40 µM: concentration 40000 nM
T1 construct: human TMPRSS2 residues 106492, N-terminal 6x His-tag; 6x His-tag (N); purchased Cusabio CSB-YP023924HU; host or cells: yeast
T1 sequence (O15393 106-492 limits assumed): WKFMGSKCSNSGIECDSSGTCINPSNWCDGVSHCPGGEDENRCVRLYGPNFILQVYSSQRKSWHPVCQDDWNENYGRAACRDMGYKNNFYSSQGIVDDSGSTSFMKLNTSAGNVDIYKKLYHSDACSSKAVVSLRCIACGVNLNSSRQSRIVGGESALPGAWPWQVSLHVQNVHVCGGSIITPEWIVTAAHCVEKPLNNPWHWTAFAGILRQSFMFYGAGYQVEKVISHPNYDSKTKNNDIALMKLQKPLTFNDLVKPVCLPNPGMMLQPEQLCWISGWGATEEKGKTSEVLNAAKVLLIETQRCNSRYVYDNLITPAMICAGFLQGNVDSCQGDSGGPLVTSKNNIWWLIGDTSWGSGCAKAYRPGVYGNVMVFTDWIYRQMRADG
Method: Inhibitors of TMPRSS2 were tested using a high throughput activity assay. […] TMPRSS2 (5 µl, 0.018 mg/ml) in assay buffer (50 mM Tris pH 8, 150 mM NaCl, 0.01% Tween20) was dispensed to that, using a BioRAPTR (Beckman Coulter), for a total assay volume of 5 µl.
After incubation at room temperature for 1 h, fluorescence was measured. […] Raw plate reads for each titration point were normalized relative to a positive control containing no enzyme (0% activity, full inhibition) and a negative control containing DMSO-only wells (100% activity, basal activity). Data normalization was performed using GraphPad Prism (GraphPad Software, San Diego, CA).
We employed the curve fitting algorithm available in the SciPy package (version 1.10.1)[61] to derive the Hill slope and the IC50 value, along with their corresponding error estimates.

Row | Compound | inhibition at 0.00025 µM [2] | inhibition at 0.0025 µM [2] | inhibition at 0.025 µM [2] | inhibition at 0.25 µM [2] | inhibition at 2.5 µM [2] | inhibition at 25 µM [2] | inhibition at 0.000677404 µM [4] | inhibition at 0.00203221 µM [4] | inhibition at 0.00609663 µM [4] | inhibition at 0.0182899 µM [4] | inhibition at 0.0548697 µM [4] | inhibition at 0.164609 µM [4] | inhibition at 0.493827 µM [4] | inhibition at 1.48148 µM [4] | inhibition at 4.44444 µM [4] | inhibition at 13.3333 µM [4] | inhibition at 40 µM [4] | other results
1 | CC(C)(C)NC(=O)N1CCN(C(=O)N2C(=O)C(CCCNC(=N)N)C2C(=O)O)CC1 (stereo not drawn) [BMS-262084] | 2.19% | 1.17% | 1.08% | 0.456% | 0.565% | -2.28% | 22.3% | 54.4% | 77.8% | 91.4% | 94.8% | 99.3% | 97.2% | 99% | 98% | 98.8% | 93.2% | IC50 ([1]; Severe acute respiratory syndrome coronavirus 2, Calu-3, 24 h, read-out: IC50, relative infectivity of SARS-CoV-2): 510 nM; IC50 ([1]; Severe acute respiratory syndrome coronavirus 2, Calu-3 cells, Figure S5, read-out: IC50 estimate, SARS-CoV-2 entry inhibition): 509 ± 146 nM; fold more potent than camostat (lower IC50) [3]: ~2 fold; fold more potent than camostat (lower IC50) ([3]; SARS-CoV-2 lineages B.1, B.1.617.2, EG.5.1, BA.2.86, Calu-3 cells): 3–8 fold; cytotoxicity at concentrations used for preincubation (Calu-3 cells): noncytotoxic; inhibition at 75.27 pM ([4]; concentration 0.0752671 nM): 1.73%; inhibition at 0.000225801 µM ([4]; concentration 0.225801 nM): 16.6%; IC50 ([4]; read-out: IC50, inhibition in TMPRSS2 biochemical assay): 1.82 nM
2 | CN(C)C(=O)COC(=O)Cc1ccc(OC(=O)c2ccc(NC(=N)N)cc2)cc1 [camostat] | 0.261% | -1.2% | -0.393% | -0.191% | -0.407% | -1.53% | 13.8% | 36.1% | 68.3% | 90.6% | 102% | 103% | 105% | 105% | 104% | 104% | 104% | 
